Assay [1] deals with SOCE in human Jurkat T cells. In words: cells. The class given is cell-based. On the procedure: Jurkat T-lymphocytes, primary human CD4^+ T cells and H1299 cells were pelleted at 450 ×g for 5 min, rat TMBP at 300 ×g for 8 min at room temperature and were resuspended in 1 ml of either standard JMP medium (Jurkat, H1299 and human CD4^+ T cells) or standard DMEM based medium containing 10% fetal bovine serum (FBS) (v/v) (TMBP cells). Resting TMBP cells (day 5–7 after re-stimulation) after the second to fifth re-stimulation were thawed from liquid nitrogen 12 to 40 h prior to Fura2-loading. After pre-incubation for 5 min at 37 °C, cells were incubated with 4 μM Fura2-AM for 15 min at 37 °C. After addition of the dye, cells were kept in the dark. Afterwards, cells and the dye were diluted by addition of 4 ml standard medium and incubated for another 15 min. Cells were washed twice in Ca^2+ buffer (140 mM NaCl, 5 mM KCl, 1 mM MgSO4, 1 mM CaCl2, 1 mM NaH2PO4, 20 mM HEPES, 5.5 mM glucose; pH 7.4 (NaOH), sterile filtered) and were diluted to a concentration of 2*10^6 cells/ml. Subsequently, cells were kept at room temperature for 20 min for de-esterification before the start of the first measurement.
In experiments using a Ca^2+ free/Ca^2+ re-addition protocol, cells were pelleted as described for Fura2 loading and Ca^2+ buffer was exchanged by 1 ml nominal Ca^2+ free buffer (140 mM NaCl, 5 mM KCl, 1 mM MgSO4, 1 mM NaH2PO4, 20 mM HEPES, 5.5 mM glucose; pH 7.4 (NaOH), sterile filtered) immediately before starting the measurement. The measurement was controlled by FL Solutions (Version 4.1, Hitachi High-Technologies Corporation). Fura2 was alternatively excited every 2 s at 340 ± 5 nm and 380 ± 5 nm, each 400 ms apart.
Finally, every measurement was calibrated using 0.1% (v/v) Triton X-100 to obtain a maximal ratio and 4 mM EGTA and 30 mM Tris to obtain a minimal ratio.
R is the ratio between F340 and F380. Rmin and Rmax are the minimal and maximal ratio, respectively, obtained by calibration. F380 min and F380 max are the minimal and maximal fluorescence intensity at 380 nm EX during the calibration. Finally, artefacts due to compound additions that usually could easily be identified and lasted about 8 s were deleted from the tracings using FL Solutions (Version 4.1, Hitachi High-Technologies Corporation). The fluorescence intensities of deleted data points were interpolated from those just before and after the deleted time points.
Estradiol, 2ME2 and 2ME2 derivatives were dissolved in DMSO at a concentration of 50 mM and stored at −20 °C for up to 6 months. For concentration-response curves, stock solution was freshly diluted with DMSO to obtain the same DMSO concentration of 0.2% (v/v) for all conditions.
The compound concentrations were then log transformed. Finally, the data were fitted to a corresponding nonlinear fit of variable slope using Prism 6 (GraphPad Software, USA).

The test system of the next assay is IP3 receptors. Briefly: IP3-evoked Ca2+ release in permeabilized Jurkat T cells. It is filed as cell-based, human. The conditions noted are these: 2 μM IP3. As to the method:
(§1) 3 ∗ 10^7 Jurkat T-lymphocytes per measurement were centrifuged at 450 ×g for 5 min at room temperature. The pellet was rinsed twice, each time using 10 ml permeabilization buffer 1 (120 mM KCl, 10 mM NaCl, 1.2 mM MgCl2, 0.533 mM CaCl2, 1 mM EGTA and 10 mM HEPES, pH 7.2 (KOH), sterile filtered). Subsequently, the pellet was resuspended in 2 ml permeabilization buffer 1 containing 80 μg/ml saponin (Fluka) and the cells were incubated for 10 min at 37 °C. Subsequently, the cells were centrifuged at 450 ×g for 5 min at room temperature and the cell pellet was washed once in 10 ml permeabilization buffer 2 (120 mM KCl, 10 mM NaCl, 1.2 mM MgCl2 and 10 mM HEPES, pH 7.2 (KOH), sterile filtered). Finally, the cells were taken up in 1 ml permeabilization buffer 2, placed into a cuvette and measured at the fluorescence spectrophotometer. Before the start of the measurement, 0.5 μl of 1 mM Fura2 free acid (dissolved in pure water, final concentration: 0.5 μM), 5 μl of 5 mg/ml creatinkinase (dissolved in permeabilization buffer 2, final concentration: 25 μg/ml, 20 U/ml, Roche) and 10 μl of 2 M creatin phosphate (dissolved in permeabilization buffer 2, final concentration: 20 mM, Calbiochem) were added. Fura2 was used to measure the Ca^2+ concentration and creatinkinase and creatin phosphate were used as ATP-regenerating system. The measurement was controlled by FL Solutions (Version 4.1, Hitachi High-Technologies Corporation). Fura2 was alternatively excited every 2 s at 340 ± 5 nm and 380 ± 5 nm, each 400 ms apart. Fluorescence intensity was measured at an emission wavelength of 495 ± 5 nm for both excitation wavelengths. […] Ca^2+ concentrations were calculated according to Grynkiewicz et al. as described earlier in Section 2.4.
(§2) As a quantitative read-out for inhibition of IP3 receptors, the peak [Ca^2+] after IP3 addition was subtracted from the mean [Ca^2+] between 25 and 75 s before IP3 addition (dPeak). […] The rate constant K of the fitted data was used as a quantitative read-out for SERCA pump activity and its inhibition.

The next assay deals with SERCA pumps. In words: SERCA activity (ATP-induced Ca2+ reuptake) in permeabilized Jurkat T cells. The class given is cell-based, human. As to the method:
as §1, §2

Setting [2] is: Homo sapiens, Jurkat, Jurkat T cells, Ca2+ free/Ca2+ re-addition protocol, plateau 425-475 s after re-addition of 1 mM Ca2+, read-out: IC50 of SOCE inhibition.
The mark [3] stands for this setting: Jurkat T cells, Ca2+ free/Ca2+ re-addition protocol.
The mark [4] stands for this setting: Homo sapiens, Jurkat, read-out: IC50 of SOCE inhibition, Jurkat T cells, Ca2+ free/Ca2+ re-addition protocol, plateau 425-475 s after re-addition of 1 mM Ca2+.
The mark [5] stands for this setting: Jurkat T cells, Ca2+ free/Ca2+ re-addition protocol, plateau 425-475 s after re-addition of 1 mM Ca2+, read-out: IC50 of SOCE inhibition.

Read-outs that look alike come from different tables or passages of the source.

As for `C[C@]12CC[C@@H]3c4ccc(O)cc4CC[C@H]3[C@@H]1CC[C@@H]2O` [E2, estradiol], in assay [1] (setting [2]), the IC50 was found to be 55000 nM. Turning to `COc1cc2c(cc1OS(N)(=O)=O)CCC1C2CCC2(C)C(O)CCC12` (centres unmarked) [STX68], the IC50 in assay [1] (Homo sapiens, Jurkat, read-out: IC50 of SOCE inhibition) was found to be 25000 nM.

Turning to `CCc1cc2c(cc1O)CCC1C2CCC2(C)C(O)CCC12` (centres unmarked) [STX139, 2-ethyl-estradiol], the IC50 in assay [1] (setting [2]) is approximately 12000 nM. Also, the “concentration giving almost complete inhibition of Ca2+ entry” value in assay [1] (setting [3]) came out at 50 µM. `CCc1cc2c(cc1OS(N)(=O)=O)CCC1C2CCC2(C)C(OS(N)(=O)=O)CCC12` (centres unmarked) [STX243]: the IC50 in assay [1] (setting [2]) turned out to be 5200 nM. Further, in assay [1] (setting [3]), the “concentration giving almost complete inhibition of Ca2+ entry” value came out at 25 µM. In assay [1] (Jurkat T cells, SOCE), the “IC50 fold smaller as compared to STX139” value is recorded as “approx. 2 fold”.

As for `CCc1cc2c(cc1O)CCC1C2CCC2(C)C(CC#N)CCC12` (centres unmarked) [STX505], the IC50 in assay [1] (setting [4]) stood at 1700 nM. As to `COc1cc2c(cc1O)CCC1C2CCC2(C)C(CC#N)CCC12` (centres unmarked) [STX640], the IC50 in assay [1] (setting [4]) was 2100 nM. Further, the “fold more potent than the 17β-hydroxyl-compound (2ME2)” value in assay [1] (Jurkat T cells, SOCE) is recorded as 10 fold. Turning to `COc1cc2c(cc1OS(N)(=O)=O)CCC1C2CCC2(C)C(CC#N)CCC12` (centres unmarked) [STX641], the IC50 in assay [1] (setting [2]) was determined as 1700 nM. In addition, the “fold more potent than the 17β-hydroxyl-compound (2ME2)” value in assay [1] (Jurkat T cells, SOCE) stood at 10 fold. On to `CCc1cc2c(cc1O)CCC1C2CCC2(C)C(C[N+](=O)[O-])CCC12` (centres unmarked) [STX1175], for which, in assay [1] (setting [2]), the IC50 turned out to be 1400 nM. On to `CCc1cc2c(cc1OS(N)(=O)=O)CCC1C2CCC2(C)C(C[N+](=O)[O-])CCC12` (centres unmarked) [STX1177], for which the concentration for half-maximal inhibition (IC50) in assay [1] (setting [2]) was 1300 nM; in assay [1] (setting [5]), approximately 1000 nM.

With `CCc1cc2c(cc1O)CCC1C2CCC2(C)C(CC(C)=O)CCC12` (centres unmarked) [STX1306], in assay [1] (setting [2]), the IC50 amounted to 1600 nM. Consider `CCc1cc2c(cc1OS(N)(=O)=O)CCC1C2CCC2(C)C(CC(C)=O)CCC12` (centres unmarked) [STX1307], for which the IC50 is 1100 nM in assay [1] (setting [2]) and approximately 1000 nM in assay [1] (setting [5]). For `C/C=C(/C)C(=O)O[C@H]1C(C)=C2[C@H]([C@@H]1OC(=O)CCCCCCC)[C@@](C)(OC(C)=O)C[C@H](OC(=O)CCC)[C@@]1(O)[C@H]2OC(=O)[C@@]1(C)O` [thapsigargin], the “effect on IP3-evoked Ca2+ release” value with IP3 receptors is “eliminating effects of IP3”. For the same molecule, the “effect on SERCA activity (initial slope of [Ca2+] upon ATP addition)” value in the assay on SERCA pumps is “almost completely abolished”.

As a reminder, the IC50 is the concentration at which inhibition is half-maximal.

Source of the values: PMC8062851, “2-Methoxyestradiol and its derivatives inhibit store-operated Ca^2+ entry in T cells: Identification of a new and potent inhibitor” (Biochimica et Biophysica Acta. Molecular Cell Research, 2021).
